This passage reports Residual activity results from PMC9030254, “Target Hopping from Protein Kinases to PXR: Identification of Small-Molecule Protein Kinase Inhibitors as Selective Modulators of Pregnane X Receptor from TüKIC Library” (Cells, 2022).

Common to all, as to assay: Kinase profiling
What all share (format): biochemical

One assay addresses T1, WNK2 (Homo sapiens, UniProt Q9Y3S1).
T1 construct: purchased ProQinase (Freiburg, Germany)
The method, then:
(§1) The analysis was performed by ProQinase (Freiburg, Germany).

The next assay has as its target T2, RON (Homo sapiens, UniProt Q04912).
T2 construct: purchased ProQinase (Freiburg, Germany)
The method, then:
as §1

The target of a further assay is T3, PKCmu (Homo sapiens, UniProt Q15139).
T3 construct: purchased ProQinase (Freiburg, Germany)
T3 sequence (Q15139 1-912): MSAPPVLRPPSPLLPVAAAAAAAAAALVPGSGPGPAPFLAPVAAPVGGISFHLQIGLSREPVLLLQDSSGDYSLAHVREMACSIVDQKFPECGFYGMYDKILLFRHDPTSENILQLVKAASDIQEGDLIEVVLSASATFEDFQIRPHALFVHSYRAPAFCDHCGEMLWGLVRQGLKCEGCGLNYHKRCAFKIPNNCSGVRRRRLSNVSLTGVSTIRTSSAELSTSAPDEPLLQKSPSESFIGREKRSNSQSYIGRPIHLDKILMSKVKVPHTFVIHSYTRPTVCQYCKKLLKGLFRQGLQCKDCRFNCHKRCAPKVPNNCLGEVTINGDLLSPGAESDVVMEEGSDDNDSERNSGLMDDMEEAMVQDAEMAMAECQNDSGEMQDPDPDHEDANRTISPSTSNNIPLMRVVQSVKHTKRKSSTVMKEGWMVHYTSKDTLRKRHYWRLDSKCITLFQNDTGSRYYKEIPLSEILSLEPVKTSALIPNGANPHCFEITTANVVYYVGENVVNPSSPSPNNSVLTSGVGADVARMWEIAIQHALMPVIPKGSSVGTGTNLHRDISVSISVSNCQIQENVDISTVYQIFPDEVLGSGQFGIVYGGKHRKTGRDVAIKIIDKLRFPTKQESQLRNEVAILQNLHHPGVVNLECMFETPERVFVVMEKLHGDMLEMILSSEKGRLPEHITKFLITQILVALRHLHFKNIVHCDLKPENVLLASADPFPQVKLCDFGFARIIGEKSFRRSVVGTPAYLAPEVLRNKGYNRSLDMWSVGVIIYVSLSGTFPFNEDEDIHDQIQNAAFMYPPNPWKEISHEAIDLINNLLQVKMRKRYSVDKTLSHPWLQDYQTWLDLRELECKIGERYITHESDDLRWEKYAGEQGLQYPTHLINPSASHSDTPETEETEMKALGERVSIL
The method, then:
as §1

For the next assay, the target named is T4, TEC (Homo sapiens, UniProt P42680).
T4 construct: purchased ProQinase (Freiburg, Germany)
T4 sequence (P42680 1-631): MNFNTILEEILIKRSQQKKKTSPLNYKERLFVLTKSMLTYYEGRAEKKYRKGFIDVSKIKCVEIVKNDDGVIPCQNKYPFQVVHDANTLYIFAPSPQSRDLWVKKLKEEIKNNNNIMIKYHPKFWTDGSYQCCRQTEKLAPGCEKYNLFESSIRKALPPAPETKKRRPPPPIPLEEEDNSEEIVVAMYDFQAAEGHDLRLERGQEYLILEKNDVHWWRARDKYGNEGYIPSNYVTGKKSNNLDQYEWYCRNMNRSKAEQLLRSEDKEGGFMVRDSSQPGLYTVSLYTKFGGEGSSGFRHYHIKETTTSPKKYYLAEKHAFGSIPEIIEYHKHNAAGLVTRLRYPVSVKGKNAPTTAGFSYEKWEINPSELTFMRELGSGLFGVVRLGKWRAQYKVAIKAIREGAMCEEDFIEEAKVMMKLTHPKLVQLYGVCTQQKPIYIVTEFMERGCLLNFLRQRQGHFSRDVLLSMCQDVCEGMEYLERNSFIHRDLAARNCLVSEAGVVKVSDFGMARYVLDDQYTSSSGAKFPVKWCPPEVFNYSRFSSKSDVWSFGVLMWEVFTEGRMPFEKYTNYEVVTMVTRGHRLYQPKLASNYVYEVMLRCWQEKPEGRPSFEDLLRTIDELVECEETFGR
As to the method:
as §1

For another assay, the target named is T5, TRKA (Homo sapiens, UniProt P04629).
T5 construct: purchased ProQinase (Freiburg, Germany)
As to the method:
as §1

A further assay has as its target T6, MKNK1 (Homo sapiens, UniProt Q9BUB5).
T6 construct: purchased ProQinase (Freiburg, Germany)
As to the method:
as §1

The target in the next assay is T7, CDK13/CycK (Homo sapiens, UniProt Q14004).
T7 construct: purchased ProQinase (Freiburg, Germany)
As to the method:
as §1

In the next assay the target is T8, FLT3 (Homo sapiens, UniProt P36888).
T8 construct: purchased ProQinase (Freiburg, Germany)
T8 sequence (P36888 27-993): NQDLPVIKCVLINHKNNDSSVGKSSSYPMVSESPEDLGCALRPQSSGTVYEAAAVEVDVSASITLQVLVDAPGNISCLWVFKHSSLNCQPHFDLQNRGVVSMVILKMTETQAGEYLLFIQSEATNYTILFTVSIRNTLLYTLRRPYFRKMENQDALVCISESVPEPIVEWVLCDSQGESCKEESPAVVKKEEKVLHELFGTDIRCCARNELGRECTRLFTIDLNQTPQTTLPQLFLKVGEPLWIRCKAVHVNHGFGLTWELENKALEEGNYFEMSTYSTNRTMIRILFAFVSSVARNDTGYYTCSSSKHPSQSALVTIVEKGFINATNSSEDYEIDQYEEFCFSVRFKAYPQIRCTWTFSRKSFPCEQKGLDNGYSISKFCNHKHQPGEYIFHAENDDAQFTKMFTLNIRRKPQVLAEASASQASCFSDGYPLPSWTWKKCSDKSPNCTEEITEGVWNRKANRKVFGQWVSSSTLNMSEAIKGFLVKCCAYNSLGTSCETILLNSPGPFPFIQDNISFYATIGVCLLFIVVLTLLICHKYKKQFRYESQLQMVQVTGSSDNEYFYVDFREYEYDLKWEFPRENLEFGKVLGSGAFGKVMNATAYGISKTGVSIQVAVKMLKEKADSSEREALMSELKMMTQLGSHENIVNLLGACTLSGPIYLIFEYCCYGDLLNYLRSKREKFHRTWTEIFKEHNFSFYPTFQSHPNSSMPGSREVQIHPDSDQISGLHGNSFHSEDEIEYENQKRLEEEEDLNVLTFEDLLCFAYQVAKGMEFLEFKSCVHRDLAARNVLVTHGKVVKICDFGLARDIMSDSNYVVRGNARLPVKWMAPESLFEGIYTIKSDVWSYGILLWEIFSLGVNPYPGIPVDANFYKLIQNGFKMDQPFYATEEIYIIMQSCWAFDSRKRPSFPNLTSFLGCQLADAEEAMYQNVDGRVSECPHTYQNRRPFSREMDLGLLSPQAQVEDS
As to the method:
as §1

T5 sequence (P04629 33-796): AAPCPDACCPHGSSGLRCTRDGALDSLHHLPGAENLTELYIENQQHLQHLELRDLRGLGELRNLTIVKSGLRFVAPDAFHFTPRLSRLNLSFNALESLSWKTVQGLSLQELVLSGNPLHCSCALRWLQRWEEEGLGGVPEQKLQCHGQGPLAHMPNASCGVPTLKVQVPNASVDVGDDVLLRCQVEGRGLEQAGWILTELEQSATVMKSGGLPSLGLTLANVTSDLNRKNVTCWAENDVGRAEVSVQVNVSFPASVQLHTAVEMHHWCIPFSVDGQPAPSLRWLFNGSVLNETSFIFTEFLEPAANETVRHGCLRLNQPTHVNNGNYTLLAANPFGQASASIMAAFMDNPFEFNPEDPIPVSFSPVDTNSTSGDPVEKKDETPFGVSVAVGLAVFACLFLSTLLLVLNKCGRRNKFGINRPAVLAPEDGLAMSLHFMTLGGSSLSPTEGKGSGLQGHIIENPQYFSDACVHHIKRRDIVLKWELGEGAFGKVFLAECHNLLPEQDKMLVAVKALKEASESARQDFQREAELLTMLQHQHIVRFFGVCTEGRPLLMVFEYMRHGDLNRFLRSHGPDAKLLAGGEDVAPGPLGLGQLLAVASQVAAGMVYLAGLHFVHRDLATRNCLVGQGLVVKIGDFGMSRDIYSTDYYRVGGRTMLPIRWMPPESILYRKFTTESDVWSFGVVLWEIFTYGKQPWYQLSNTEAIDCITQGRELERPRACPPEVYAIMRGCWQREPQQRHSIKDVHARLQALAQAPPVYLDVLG
T6 sequence (Q9BUB5 whole entry): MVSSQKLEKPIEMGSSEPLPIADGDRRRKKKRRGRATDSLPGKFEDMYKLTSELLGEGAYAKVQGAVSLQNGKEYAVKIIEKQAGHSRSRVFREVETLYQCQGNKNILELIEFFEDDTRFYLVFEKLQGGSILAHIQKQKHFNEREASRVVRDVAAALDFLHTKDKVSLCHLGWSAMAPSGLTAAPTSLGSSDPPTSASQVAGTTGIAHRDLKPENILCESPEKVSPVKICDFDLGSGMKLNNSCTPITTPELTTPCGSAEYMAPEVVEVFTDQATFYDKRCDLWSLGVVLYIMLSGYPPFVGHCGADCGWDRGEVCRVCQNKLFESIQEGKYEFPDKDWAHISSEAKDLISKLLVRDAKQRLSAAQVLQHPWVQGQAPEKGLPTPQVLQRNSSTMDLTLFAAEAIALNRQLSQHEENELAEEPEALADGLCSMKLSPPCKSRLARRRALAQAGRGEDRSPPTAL
T7 sequence (Q14004 whole entry): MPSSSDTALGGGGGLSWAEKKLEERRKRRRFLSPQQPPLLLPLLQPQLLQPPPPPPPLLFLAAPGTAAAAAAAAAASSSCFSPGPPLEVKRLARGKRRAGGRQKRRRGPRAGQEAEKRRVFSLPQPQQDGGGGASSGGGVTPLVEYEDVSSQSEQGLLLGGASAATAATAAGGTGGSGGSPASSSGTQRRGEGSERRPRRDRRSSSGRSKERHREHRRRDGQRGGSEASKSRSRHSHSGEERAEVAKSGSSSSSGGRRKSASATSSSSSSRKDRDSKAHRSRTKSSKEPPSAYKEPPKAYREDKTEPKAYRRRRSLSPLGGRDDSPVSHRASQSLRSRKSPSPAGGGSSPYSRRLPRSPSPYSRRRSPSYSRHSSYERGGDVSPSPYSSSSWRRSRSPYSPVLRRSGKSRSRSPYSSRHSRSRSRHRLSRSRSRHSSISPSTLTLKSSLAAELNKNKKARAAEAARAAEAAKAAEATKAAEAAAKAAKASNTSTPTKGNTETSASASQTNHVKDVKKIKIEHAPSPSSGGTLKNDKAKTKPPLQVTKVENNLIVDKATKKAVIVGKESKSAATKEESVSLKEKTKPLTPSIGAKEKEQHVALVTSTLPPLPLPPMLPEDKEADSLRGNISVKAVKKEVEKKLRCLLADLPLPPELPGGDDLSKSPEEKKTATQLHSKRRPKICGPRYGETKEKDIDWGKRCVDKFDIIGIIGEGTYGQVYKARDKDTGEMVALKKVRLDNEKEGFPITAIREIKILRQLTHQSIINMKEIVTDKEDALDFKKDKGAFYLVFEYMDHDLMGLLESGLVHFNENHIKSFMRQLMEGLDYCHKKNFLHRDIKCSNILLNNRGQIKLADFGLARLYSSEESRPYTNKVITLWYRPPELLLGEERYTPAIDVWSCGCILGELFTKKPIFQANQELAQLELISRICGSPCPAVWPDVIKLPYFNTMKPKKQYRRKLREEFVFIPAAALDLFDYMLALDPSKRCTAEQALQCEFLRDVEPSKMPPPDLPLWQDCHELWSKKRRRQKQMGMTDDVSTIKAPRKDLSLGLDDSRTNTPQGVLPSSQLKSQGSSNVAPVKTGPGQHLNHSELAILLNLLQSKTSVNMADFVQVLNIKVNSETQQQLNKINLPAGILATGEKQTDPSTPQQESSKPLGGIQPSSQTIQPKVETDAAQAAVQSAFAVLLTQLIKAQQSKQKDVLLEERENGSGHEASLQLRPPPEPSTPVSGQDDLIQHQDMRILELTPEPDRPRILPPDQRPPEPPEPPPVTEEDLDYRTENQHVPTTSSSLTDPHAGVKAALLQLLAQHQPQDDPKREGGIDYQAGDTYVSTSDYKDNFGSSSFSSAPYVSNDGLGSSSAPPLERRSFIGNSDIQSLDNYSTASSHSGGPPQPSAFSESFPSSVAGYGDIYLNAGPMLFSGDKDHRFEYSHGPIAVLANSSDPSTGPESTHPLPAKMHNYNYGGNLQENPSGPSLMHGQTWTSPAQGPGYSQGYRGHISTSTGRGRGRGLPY
T7 sequence (O75909 whole entry partner): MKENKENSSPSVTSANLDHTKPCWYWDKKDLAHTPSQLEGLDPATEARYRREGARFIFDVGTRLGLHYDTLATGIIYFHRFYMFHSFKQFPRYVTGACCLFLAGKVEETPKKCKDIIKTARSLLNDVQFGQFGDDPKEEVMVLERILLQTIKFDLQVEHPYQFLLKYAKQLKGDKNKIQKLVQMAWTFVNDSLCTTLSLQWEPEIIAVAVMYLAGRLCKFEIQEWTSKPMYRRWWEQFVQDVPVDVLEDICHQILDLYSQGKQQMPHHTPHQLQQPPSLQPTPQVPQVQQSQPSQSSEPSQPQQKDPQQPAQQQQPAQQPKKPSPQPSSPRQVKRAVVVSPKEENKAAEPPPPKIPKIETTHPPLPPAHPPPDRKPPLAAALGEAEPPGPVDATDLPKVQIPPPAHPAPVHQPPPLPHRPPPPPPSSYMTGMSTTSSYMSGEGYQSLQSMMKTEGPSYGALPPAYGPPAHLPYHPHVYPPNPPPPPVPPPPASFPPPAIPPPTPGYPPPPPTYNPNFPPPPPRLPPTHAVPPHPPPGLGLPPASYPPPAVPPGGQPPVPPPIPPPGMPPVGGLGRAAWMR
T2 sequence (Q04912 25-1400): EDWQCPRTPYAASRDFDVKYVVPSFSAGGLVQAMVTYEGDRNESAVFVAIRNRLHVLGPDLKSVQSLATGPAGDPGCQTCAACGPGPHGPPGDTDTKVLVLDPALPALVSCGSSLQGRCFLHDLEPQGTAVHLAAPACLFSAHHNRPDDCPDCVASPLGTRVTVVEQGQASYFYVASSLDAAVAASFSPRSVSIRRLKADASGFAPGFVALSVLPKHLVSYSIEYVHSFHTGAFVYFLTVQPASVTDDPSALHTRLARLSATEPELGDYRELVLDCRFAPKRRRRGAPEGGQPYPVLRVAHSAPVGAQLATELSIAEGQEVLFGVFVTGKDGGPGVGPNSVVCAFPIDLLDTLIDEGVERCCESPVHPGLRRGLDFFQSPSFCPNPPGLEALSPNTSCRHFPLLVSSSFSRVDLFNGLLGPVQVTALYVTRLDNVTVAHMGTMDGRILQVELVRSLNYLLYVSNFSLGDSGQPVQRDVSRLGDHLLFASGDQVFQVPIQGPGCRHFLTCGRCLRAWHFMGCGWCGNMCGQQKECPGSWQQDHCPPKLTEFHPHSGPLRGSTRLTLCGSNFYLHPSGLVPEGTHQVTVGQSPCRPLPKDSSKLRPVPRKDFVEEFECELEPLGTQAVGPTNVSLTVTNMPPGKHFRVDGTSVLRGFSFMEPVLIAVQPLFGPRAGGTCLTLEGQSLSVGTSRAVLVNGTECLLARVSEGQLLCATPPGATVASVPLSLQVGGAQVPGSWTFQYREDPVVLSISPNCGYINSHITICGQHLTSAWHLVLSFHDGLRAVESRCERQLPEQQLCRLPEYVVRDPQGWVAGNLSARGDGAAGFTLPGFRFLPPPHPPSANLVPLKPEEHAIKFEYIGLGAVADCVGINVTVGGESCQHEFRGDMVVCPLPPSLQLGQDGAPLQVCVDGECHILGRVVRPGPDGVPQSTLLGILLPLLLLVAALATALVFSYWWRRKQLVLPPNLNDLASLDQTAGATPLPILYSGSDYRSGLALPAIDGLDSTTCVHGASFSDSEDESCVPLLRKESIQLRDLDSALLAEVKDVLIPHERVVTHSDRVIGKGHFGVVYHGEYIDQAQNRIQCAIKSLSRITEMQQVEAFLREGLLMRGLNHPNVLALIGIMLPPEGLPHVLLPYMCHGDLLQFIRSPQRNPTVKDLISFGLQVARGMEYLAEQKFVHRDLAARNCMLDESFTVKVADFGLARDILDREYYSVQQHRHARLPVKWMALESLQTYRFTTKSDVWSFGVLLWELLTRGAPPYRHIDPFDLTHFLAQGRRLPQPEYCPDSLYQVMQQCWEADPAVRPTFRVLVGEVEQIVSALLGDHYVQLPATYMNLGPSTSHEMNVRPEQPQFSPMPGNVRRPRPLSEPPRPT

Take `O=C(Cc1ccccc1)Nc1ccc(F)c(Nc2ccc3c(c2)CCCCC3=O)c1` [Compound 100]: the Residual activity at WNK2 (1.0E-05 M) was 100 % of control; on WNK2 (1.0E-06 M) it was 95 % of control; on RON (1.0E-05 M), 77 % of control; on RON (1.0E-06 M), 104 % of control; on PKCmu (1.0E-05 M), 94 % of control; on PKCmu (1.0E-06 M), 106 % of control. In addition, the Residual activity on TEC (1.0E-05 M) is on record as 69 % of control; on TEC (1.0E-06 M) it was 88 % of control; on TRKA (1.0E-05 M), 94 % of control; at TRKA (1.0E-06 M), 107 % of control; at MKNK1 (1.0E-05 M), 95 % of control; at MKNK1 (1.0E-06 M), 90 % of control. Further, the Residual activity on CDK13/CycK (1.0E-05 M) is 84 % of control; on CDK13/CycK (1.0E-06 M) it was 88 % of control; on FLT3 (1.0E-05 M) it was 94 % of control; at FLT3 (1.0E-06 M), 101 % of control.
In the case of `O=C(Nc1ccc(F)c(Nc2ccc3c(c2)CCCCC3=O)c1)c1cccc(F)c1` [Compound 109], the Residual activity at WNK2 (1.0E-05 M) is recorded as 96 % of control; on WNK2 (1.0E-06 M) it was 90 % of control; on RON (1.0E-05 M), 83 % of control; on RON (1.0E-06 M) it was 89 % of control; at PKCmu (1.0E-05 M), 96 % of control; at PKCmu (1.0E-06 M) it was 95 % of control. Further, the Residual activity at TEC (1.0E-05 M) is recorded as 80 % of control; on TEC (1.0E-06 M), 94 % of control; on TRKA (1.0E-05 M), 97 % of control; on TRKA (1.0E-06 M) it was 101 % of control; at MKNK1 (1.0E-05 M), 91 % of control; at MKNK1 (1.0E-06 M), 92 % of control. In addition, the Residual activity at CDK13/CycK (1.0E-05 M) was 92 % of control; at CDK13/CycK (1.0E-06 M), 88 % of control; on FLT3 (1.0E-05 M), 91 % of control; at FLT3 (1.0E-06 M), 98 % of control.
